US20220089646A1 (THE UNIVERSITY OF QUEENSLAND, priority 2019, published 2022)
*1 amine or outer side, *2 acyl side, *3 side chain or, on linkers, in order; H or OH if unused. Where a SMILES comes first, the peptide text is derived from it. Bridges are numbered along the chain shown (N, C = ends). [ ]: non-standard residue; d: D form. NHCH2CMe2S = CC(C)(CN[*:1])S[*:2]

Experiments:
KOP = KOP (Homo sapiens, UniProt P41145); test: cAMP assay with naloxone in HEK-KOP cells; type: cell-based; details: naloxone 100 μM/well; for Mean cAMP response (FIG. 14): HEK-KOP, naloxone assay, peptide at approximate IC80; for Naloxone reversal of cAMP inhibition through KOP: p<0.01
Method: The preparation of buffers, cAMP standard curve, bead solutions were carried out identically to the agonist assay.
Forskolin had been optimised at 50 μM/well. Thus, the 25 mM stocks were used to prepare 300 μL of 0.3 mM Forskolin. The concentration of Forskolin prepared was 6 times the required concentration in the well to account for further dilution in the well. Forskolin solution was then made from this and used to dilute the drug solutions.
Approximate IC80 values were used for DP-7-11 and DP-7-12 to determine the ability of naloxone to reverse agonist inhibitory effect.
The desired concentration of naloxone was 100 μM/well. Thus, 100 μL of 600 μM naloxone was made up from 100 mM stock. This was 6 times the desired in-well concentration to account for further dilution in the well by Forskolin, peptide, cells and acceptor bead solutions.
Stimulation buffer was added to the 0.3 mM Forskolin solution to prepare the Forskolin only treatment solution as the positive control. Stimulation buffer used as the negative control.
The DP series compounds were assayed as follows: The different cAMP standard solutions (3 μL/well) were plated in duplicate. Naloxone solution was then plated (1 μL/well) for each treatment (DP-7-11, DP-7-12, Forskolin only and stimulation buffer) in triplicate. In the same way, stimulation buffer was plated (1 μL/well) for the same number of wells. This made up two sets of wells, antagonist and non-antagonist. Following this, the acceptor bead and cell mixture (3 μL/well) was added to the treatment wells. The plates were then covered and centrifuged at 280 g for 30 seconds before incubation on an orbital shaker for 30 minutes at room temperature. The acceptor bead mixture (3 μL/well) was then added to the cAMP standard curve wells, whilst the drug mixed with Forskolin solutions (3 μL/well) were added to the respective treatment wells in triplicate. Again, the plates were centrifuged at 280 g for 30 seconds, then covered and incubated on the orbital shaker for another 30 minutes. Finally, the donor bead mixture (10 μL/well) was added to each well. This was incubated at room temperature overnight on the orbital shaker.
The Ensight® Multimode Plate Reader was used to quantify the fluorescence units of each plate. Before reading, each plate was centrifuged at 280 g for 30 seconds. Using GraphPad Prism7® Software, cAMP concentrations were determined from the fluorescence data by fit spline/LOWESS analysis. The cAMP standard curve was used for interpolation at this point. The cAMP concentrations were then normalized to the highest cAMP concentration recorded and analyzed by one-way ANOVA for multiple comparisons. This analysis was corrected for multiple comparisons using Bonferroni. […]

DOP = DOP (Homo sapiens, UniProt P41143); test: Inhibition of Forskolin-induced cAMP production in HEK-DOP cells (AlphaScreen, DP series); type: cell-based; details: for IC50: Forskolin 50 μM/well, 95% CI in brackets; for IC80: approximate IC80, 'EC anything' protocol
Method: DP-7-11 and DP-7-12 were assessed for the ability to inhibit cAMP production in HEK-DOP and HEK KOP cells.
The HEK-293 DOP (HEK-DOP) and HEK-293 KOP (HEK-KOP) cell lines were cultured in a T75 flask, in Dulbeco's Modified Eagle's Medium (DMEM) complete with 10% (v/v) fetal bovine serum (FBS) and 1% (v/v) Geneticin. Cells were incubated in a humidified atmosphere of 37° C. (95% air and 5% CO2). Cells were passaged at 80-90% confluence and media was changed every two days.
Stimulation buffer and Lysis buffer were prepared fresh on the day of each assay. Stimulation buffer contained 19.5 mL Hanks buffered saline solution, Bovine serum albumin (BSA) 0.1% (w/v), 0.5 mM 3-Isobutyl-1-methylxanthine (IBMX) and 5 mM HEPES (4-(2-hydroxyethyl)-1-piperazineethanesulfonic acid). Lysis buffer contained 19 mL Mili-Q H2O, BSA 0.1% (w/v), 0.3% (v/v) 10% Tween-20, and 5 mM HEPES. Both buffers were adjusted to pH 7.4 with NaOH.
The cAMP standard dilution series was prepared from the 50 μM cAMP standard solution provided by the cAMP assay kit. The standard solution was vortexed before being serially diluted to provide a concentration range of 5×10^−6 M to 5×10^−11 M in ½ Log intervals.
For this assay, Forskolin was optimised at 50 μM/well. 25 mM stocks were used to prepare 0.2 mM Forskolin. The concentration of Forskolin prepared was 4 times the required concentration in the well to account for further dilution in the well. 0.1 mM Forskolin solution was then made from this and used to dilute the peptide solutions.
DP-7-11 and DP-7-12 provided in powder form and reconstituted to 10 mM stock solutions and diluted to 1 mM working stocks using Mili-Q H2O. Each peptide solution was serially diluted to give concentrations of 1×10^−6 to 3×10^−7 M with stimulation buffer.
Stimulation buffer was added to the 0.2 mM Forskolin solution in a 1:1 ratio to prepare the Forskolin only treatment solution. This was the positive control. Stimulation buffer was used as the negative control.
Cells were harvested from two T75 flasks on the day of experimentation. Identical protocol was used for both DOP and KOP cells. The cells were first removed from the incubator and washed with Versene®. The cells were then incubated in 2 mL of Versene® at 37° C. for 5 minutes. Following this, the mixture was made up to 5 mL with Versene® in a centrifuge tube. This was centrifuged at 1300 rpm for 2 minutes at 23° C. The supernatant was then decanted and the cells resuspended in 100 μL stimulation buffer for counting. A hemocytometer was used to count the cells. This assay required the concentration of cells to be 13300 cells/μL
This method was used to conduct all cAMP Alphascreen assays. The acceptor bead mixture consisted of acceptor beads and stimulation buffer mixed according to the ratio 1:35 given in the kit. From this, the acceptor beads mixture was used to prepare separate mixtures for the cAMP standard curve and for the treatment wells of the assay. For the treatment wells, the beads were mixed with cells in a 1:1 ratio. For the cAMP standard curve, the beads were mixed with more stimulation buffer in a 1:1 ratio. The donor bead mixture consisted of donor beads, biotinylated cAMP and lysis buffer mixed in the ratio 1:3:300.
The DP series compounds were assayed as follows: The assay was performed using a 96 well ½ area plate. The different cAMP standard solutions (3 μL/well) were plated in duplicate. The different concentrations of drug (3 μL/well), and control solutions (3 μL/well) were plated in triplicate. Following this, the acceptor bead mixture (3 μL/well) was added to the respective sets—either cAMP standard curve or the treatment. This was covered and incubated on the orbital shaker for 30 minutes at room temperature. Then, the donor bead mixture (10 μL/well) was added to each well. This was incubated at room temperature overnight on the orbital shaker. […]

[1] = concentration-response curve, % cAMP

KOP, sequence (P41145 whole entry): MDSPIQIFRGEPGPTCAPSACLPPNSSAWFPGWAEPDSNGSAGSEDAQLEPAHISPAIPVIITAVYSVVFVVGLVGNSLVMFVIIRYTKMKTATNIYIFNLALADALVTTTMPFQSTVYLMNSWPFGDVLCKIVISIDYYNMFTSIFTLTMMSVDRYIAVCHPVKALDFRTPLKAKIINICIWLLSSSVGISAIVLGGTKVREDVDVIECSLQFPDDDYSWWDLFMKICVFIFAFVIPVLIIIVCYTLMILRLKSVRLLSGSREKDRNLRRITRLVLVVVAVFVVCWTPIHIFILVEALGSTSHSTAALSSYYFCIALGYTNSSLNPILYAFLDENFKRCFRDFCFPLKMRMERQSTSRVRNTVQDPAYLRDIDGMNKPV
DOP, sequence (P41143 whole entry): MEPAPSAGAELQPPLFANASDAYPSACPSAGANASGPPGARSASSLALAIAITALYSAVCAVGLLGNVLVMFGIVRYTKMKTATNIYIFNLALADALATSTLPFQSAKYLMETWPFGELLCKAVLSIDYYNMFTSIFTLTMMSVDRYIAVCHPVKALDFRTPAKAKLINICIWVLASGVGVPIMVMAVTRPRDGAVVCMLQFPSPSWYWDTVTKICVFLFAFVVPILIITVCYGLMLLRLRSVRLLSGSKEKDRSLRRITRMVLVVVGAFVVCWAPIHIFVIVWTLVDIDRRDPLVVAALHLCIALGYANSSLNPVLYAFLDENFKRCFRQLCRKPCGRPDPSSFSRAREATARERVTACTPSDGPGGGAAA

Structure (SMILES)	Mean cAMP response (FIG. 14) (KOP) [%]	Naloxone reversal of cAMP inhibition through KOP (KOP)	IC50 (DOP) [nM]	IC80 (DOP) [nM]	Maximum cAMP response, HEK-DOP (DOP; [1]) [%]	Minimum cAMP response, HEK-DOP (DOP; [1]) [%]	Potency at DOP relative to KOP (DOP; cAMP IC50 DOP vs KOP)
CC1(C)CNC(=O)C[C@H](C(=O)N[C@@H](CCCNC(=N)N)C(=O)N[C@@H](CCCNC(=N)N)C(N)=O)NC(=O)[C@H](Cc2ccccc2)NC(=O)CNC(=O)[C@@H](NC(=O)[C@@H](N)Cc2ccc(O)cc2)CSS1 [DP-7-11, c(Tyr-SSa-Gly-Phe-D(Asp)-Arg-Arg)]	56.14	reversed by naloxone	1.83	24.1	93.79	23.13	
CC1(C)CNC(=O)C[C@@H](NC(=O)[C@@H](N)Cc2ccc(O)cc2)C(=O)NCC(=O)N[C@@H](Cc2ccccc2)C(=O)N[C@H](C(=O)N[C@@H](CCCNC(=N)N)C(=O)N[C@@H](CCCNC(=N)N)C(N)=O)CSS1 [DP-7-12, c(Tyr-D(Asp)-Gly-Phe-SSa-Arg-Arg)] (H-Y[dD]GFCRR-NH2; linker 2-5 via NHCH2CMe2S)	52.40	reversed by naloxone	0.608	2.72	14.03		ten times
